From PubChem BioAssay (NCI) come the findings set out here.

Among the test systems are A498 renal; HL-60(TB) leukemia; HOP-62 NSCLC; HOP-92 NSCLC; HS 578T breast; LOX IMVI melanoma; SR leukemia; SW-620 colon; U251 CNS; UO-31 renal.
What all share (experiment): NCI anticancer screen, dose series, 48 h

The structures appear in SMILES notation.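 Step 1: Grow cells in 96-well plates. Step 2: Expose to compound for 48 hours at 5 concentrations. Step 3: Interpolate endpoints linearly; if unreached, use highest concentration. Abbreviation: GI50, concentration required for 50% inhibition of growth. The concentration for full growth arrest is given as TGI.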

Turning to `O=C(Cc1ccc(/C=C/C(=O)c2ncc[nH]2)cc1)Nc1ccc(F)cc1`, the GI50 was 8.92 µM in the assay on A498 renal; 1.66 µM in the assay with HL-60(TB) leukemia; 2.64 µM with HOP-62 NSCLC; 9.11 µM in the assay with HOP-92 NSCLC; 23.3 µM in the assay on HS 578T breast; 1.07 µM in the assay with LOX IMVI melanoma. In addition, the GI50 in the assay with SR leukemia is 1.11 µM; with SW-620 colon, 1.43 µM; with U251 CNS, 1.2 µM; with UO-31 renal, 2.64 µM. Besides, the TGI in the assay with A498 renal was 22.9 µM; in the assay with HL-60(TB) leukemia it was 10.6 µM; in the assay on HOP-62 NSCLC it was 12.7 µM; in the assay on HOP-92 NSCLC it was 30.5 µM; in the assay with HS 578T breast it was above 33.3 µM; in the assay with LOX IMVI melanoma, 4.72 µM. The TGI came out at 6.41 µM with SR leukemia, 6.78 µM in the assay with SW-620 colon, 4.5 µM in the assay on U251 CNS and 7.06 µM in the assay with UO-31 renal.
`NS(=O)(=O)c1ccc(Nc2cc(-c3cccc(O)c3)[nH]n2)cc1`: the GI50 with A498 renal is above 25 µM; in the assay on HL-60(TB) leukemia it was above 25 µM; in the assay on HOP-62 NSCLC it was above 25 µM; in the assay with HOP-92 NSCLC it was 10.2 µM; with HS 578T breast, above 25 µM; in the assay with LOX IMVI melanoma, above 25 µM. In addition, the GI50 in the assay on SR leukemia is 24.2 µM; in the assay on SW-620 colon, above 25 µM; in the assay with U251 CNS it was 24.4 µM; with UO-31 renal, above 25 µM. Also, the TGI in the assay on A498 renal, in the assay on HL-60(TB) leukemia, in the assay on HOP-62 NSCLC, in the assay with HOP-92 NSCLC, with HS 578T breast and in the assay with LOX IMVI melanoma was above 25 µM throughout. The TGI in the assay with SR leukemia, in the assay on SW-620 colon, in the assay with U251 CNS and in the assay on UO-31 renal was above 25 µM each time.
With `CC(=O)O[C@H]1C(=O)[C@@]2(C)C(C(OC(=O)c3ccccc3)[C@]3(O)C[C@H](OC(=O)C(OC(=O)CCCC(=O)NCCCN(C)C)C(NC(=O)c4ccccc4)c4ccccc4)C(C)=C1C3(C)C)C1(OC(C)=O)COC1C[C@@H]2O` (some centres undefined), the TGI in the assay on A498 renal was 45.6 µM; with HL-60(TB) leukemia it was 0.0832 µM; with HOP-62 NSCLC it was 11.4 µM; with HOP-92 NSCLC, 37.2 µM; in the assay with HS 578T breast it was 0.0151 µM; in the assay on LOX IMVI melanoma it was 19.2 µM. Also, the TGI with SR leukemia amounted to 58.2 µM; with SW-620 colon, 22.4 µM; in the assay with U251 CNS it was 20.8 µM; in the assay on UO-31 renal, 64 µM.
Turning to `O=S(=O)(NCCCNc1nccc(-c2c(-c3ccc(O)cc3)nc3sccn23)n1)c1ccc(F)cc1`, the GI50 in the assay with A498 renal is 1.55 µM; in the assay on HL-60(TB) leukemia it was 2.61 µM; in the assay with HOP-62 NSCLC, 3.67 µM; in the assay with HOP-92 NSCLC, 2.65 µM; in the assay on HS 578T breast, 2.8 µM; in the assay on LOX IMVI melanoma, 0.567 µM. Moreover, the GI50 is 2.07 µM in the assay with SR leukemia, 3.66 µM in the assay with SW-620 colon, 2.92 µM in the assay with U251 CNS and 2.33 µM in the assay with UO-31 renal. In addition, the TGI in the assay with A498 renal amounted to 5.16 µM; in the assay with HL-60(TB) leukemia, 5.61 µM; with HOP-62 NSCLC it was 14.9 µM; in the assay on HOP-92 NSCLC it was 8.56 µM; with HS 578T breast it was 6.99 µM; with LOX IMVI melanoma it was 5.44 µM. The TGI in the assay with SR leukemia was above 100 µM; in the assay on SW-620 colon, above 100 µM; in the assay with U251 CNS, 12.4 µM; in the assay on UO-31 renal, 7.3 µM.
With `COc1ccc2c(c1)/C(=C\c1c(-c3cc(OC)ccc3OC)nc3sc(C)cn13)C(=O)N2C`, the GI50 with A498 renal is 27.2 µM; in the assay with HL-60(TB) leukemia, 18.3 µM; in the assay on HOP-62 NSCLC it was 26.3 µM; in the assay with HOP-92 NSCLC, 4.33 µM; in the assay on HS 578T breast, 48.9 µM; in the assay with LOX IMVI melanoma, 23.9 µM. The GI50 in the assay on SR leukemia was 20.8 µM; in the assay with SW-620 colon, 42.6 µM; in the assay on U251 CNS it was 39.7 µM; with UO-31 renal, 16.8 µM. In addition, the TGI in the assay with A498 renal is 98.7 µM; in the assay on HL-60(TB) leukemia, 41.4 µM; with HOP-62 NSCLC, above 100 µM; with HOP-92 NSCLC, 37.6 µM; in the assay on HS 578T breast, above 100 µM; in the assay with LOX IMVI melanoma it was 83.5 µM. The TGI in the assay on SR leukemia was 53 µM; in the assay with SW-620 colon, above 100 µM; with U251 CNS it was above 100 µM; with UO-31 renal, above 100 µM.
On to `CCOC(=O)C1Cc2c(cc3c4c(cccc24)N(C(C)=O)C3)N(C)C1` (centres undefined), for which the TGI in the assay on A498 renal is above 100 µM; in the assay on HL-60(TB) leukemia, above 100 µM; with HOP-62 NSCLC it was above 100 µM; in the assay with HOP-92 NSCLC, 99.7 µM; in the assay on HS 578T breast it was 9.07 µM; in the assay with LOX IMVI melanoma, above 100 µM. For the same compound, the TGI in the assay on SR leukemia, with SW-620 colon, in the assay with U251 CNS and in the assay on UO-31 renal was above 100 µM throughout.
With `CCOC(=O)c1ccc(NC(=O)Nc2nncs2)cc1`, the GI50 in the assay on A498 renal was 0.23 µM; in the assay with HL-60(TB) leukemia, 0.106 µM; in the assay on HOP-62 NSCLC, 0.237 µM; in the assay on HS 578T breast it was 0.297 µM; in the assay on LOX IMVI melanoma it was 0.485 µM; with SR leukemia, 0.0527 µM. The figures for the GI50 in the assay on SW-620 colon, in the assay on U251 CNS and in the assay with UO-31 renal were 0.0818 µM, 0.25 µM and 1.48 µM, respectively. For the same compound, the TGI in the assay on A498 renal worked out at 0.978 µM; with HL-60(TB) leukemia it was 6.7 µM; in the assay on HOP-62 NSCLC it was 15.6 µM; in the assay with HOP-92 NSCLC, 0.947 µM; in the assay on HS 578T breast, 47.4 µM; in the assay on LOX IMVI melanoma it was 7.67 µM. Also, the TGI was 24.3 µM in the assay on SR leukemia, above 100 µM in the assay with SW-620 colon, 12.7 µM with U251 CNS and 28.7 µM with UO-31 renal.
`COC(=O)c1n[nH]c(C)c1N=NN(C)CCC#N`: the TGI was above 100 µM in the assay on A498 renal; 87.6 µM in the assay with HL-60(TB) leukemia; 37 µM with HOP-62 NSCLC; 35 µM with HOP-92 NSCLC; 52 µM in the assay with HS 578T breast; above 100 µM in the assay on LOX IMVI melanoma. For the same compound, the TGI was found to be 44.6 µM with SR leukemia, 34 µM in the assay with SW-620 colon, 41.5 µM with U251 CNS and 13.3 µM with UO-31 renal.
